From PubChem BioAssay (NCI)
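How tested: cells in 96-well plates exposed to compound for 48 hours at five concentrations. Here, GI50 denotes the concentration required for 50% inhibition of growth. Definition used: TGI = concentration required for complete inhibition of growth.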

Columns and labels:
Test in all cases: inhibition of tumour cell growth, NCI panel, 48 h
ACHN renal = test system: ACHN renal
HL-60(TB) leukemia = test system: HL-60(TB) leukemia
M14 melanoma = test system: M14 melanoma
KM12 colon = test system: KM12 colon
SF-539 CNS = test system: SF-539 CNS
OVCAR-8 ovarian = test system: OVCAR-8 ovarian
IGROV1 ovarian = test system: IGROV1 ovarian
RXF 393 renal = test system: RXF 393 renal
HOP-92 NSCLC = test system: HOP-92 NSCLC
UO-31 renal = test system: UO-31 renal
A498 renal = test system: A498 renal
HCC-2998 colon = test system: HCC-2998 colon
SR leukemia = test system: SR leukemia
MDA-MB-468 breast = test system: MDA-MB-468 breast
SK-OV-3 ovarian = test system: SK-OV-3 ovarian
NCI-H23 lung = test system: NCI-H23 lung
SF-295 CNS = test system: SF-295 CNS
NCI-H460 lung = test system: NCI-H460 lung
OVCAR-3 ovarian = test system: OVCAR-3 ovarian
NCI-H522 lung = test system: NCI-H522 lung
K-562 leukemia = test system: K-562 leukemia
OVCAR-4 ovarian = test system: OVCAR-4 ovarian
MALME-3M melanoma = test system: MALME-3M melanoma
HOP-62 NSCLC = test system: HOP-62 NSCLC
SNB-19 CNS = test system: SNB-19 CNS
SF-268 CNS = test system: SF-268 CNS
OVCAR-5 ovarian = test system: OVCAR-5 ovarian
PC-3 prostate = test system: PC-3 prostate
HS 578T breast = test system: HS 578T breast
LOX IMVI melanoma = test system: LOX IMVI melanoma
CAKI-1 renal = test system: CAKI-1 renal
BT-549 breast = test system: BT-549 breast
U251 CNS = test system: U251 CNS
NCI/ADR-RES ovarian = test system: NCI/ADR-RES ovarian
DU-145 prostate = test system: DU-145 prostate
UACC-257 melanoma = test system: UACC-257 melanoma
HCT-15 colon = test system: HCT-15 colon
HCT-116 colon = test system: HCT-116 colon
SN12C renal = test system: SN12C renal
MOLT-4 leukemia = test system: MOLT-4 leukemia
TK-10 renal = test system: TK-10 renal
NCI-H226 lung = test system: NCI-H226 lung
SK-MEL-28 melanoma = test system: SK-MEL-28 melanoma
SK-MEL-2 melanoma = test system: SK-MEL-2 melanoma
MDA-MB-231 breast = test system: MDA-MB-231 breast
RPMI-8226 leukemia = test system: RPMI-8226 leukemia
SNB-75 CNS = test system: SNB-75 CNS
HT29 colon = test system: HT29 colon
786-0 renal = test system: 786-0 renal
MDA-MB-435 = test system: MDA-MB-435
UACC-62 melanoma = test system: UACC-62 melanoma
EKVX NSCLC = test system: EKVX NSCLC
SW-620 colon = test system: SW-620 colon
CCRF-CEM leukemia = test system: CCRF-CEM leukemia
MCF7 breast = test system: MCF7 breast
T-47D breast = test system: T-47D breast
SK-MEL-5 melanoma = test system: SK-MEL-5 melanoma

C=C(C)[C@@H]1CC[C@]2(C(=O)OC)CC[C@]3(C)[C@H](CC[C@@H]4[C@@]5(C)CC[C@H](N)C(C)(C)[C@@H]5CC[C@]43C)[C@@H]12
GI50 (ACHN renal): 1.7 µM
TGI (ACHN renal): 3.07 µM
GI50 (HL-60(TB) leukemia): 1.44 µM
TGI (HL-60(TB) leukemia): 3.83 µM
GI50 (M14 melanoma): 1.99 µM
TGI (M14 melanoma): 4.28 µM
GI50 (KM12 colon): 1.77 µM
TGI (KM12 colon): 3.31 µM
GI50 (SF-539 CNS): 1.63 µM
TGI (SF-539 CNS): 3 µM
GI50 (OVCAR-8 ovarian): 2.04 µM
TGI (OVCAR-8 ovarian): 4.4 µM
GI50 (IGROV1 ovarian): 1.74 µM
TGI (IGROV1 ovarian): 3.18 µM
GI50 (RXF 393 renal): 1.58 µM
TGI (RXF 393 renal): 3.07 µM
GI50 (HOP-92 NSCLC): 1.58 µM
TGI (HOP-92 NSCLC): 3.13 µM
GI50 (UO-31 renal): 1.51 µM
TGI (UO-31 renal): 2.84 µM
GI50 (A498 renal): 1.45 µM
TGI (A498 renal): 2.78 µM
GI50 (HCC-2998 colon): 1.65 µM
TGI (HCC-2998 colon): 3.07 µM
GI50 (SR leukemia): 0.379 µM
TGI (SR leukemia): 3.05 µM
GI50 (MDA-MB-468 breast): 1.77 µM
TGI (MDA-MB-468 breast): 3.26 µM
GI50 (SK-OV-3 ovarian): 2.22 µM
TGI (SK-OV-3 ovarian): 5.45 µM
GI50 (NCI-H23 lung): 1.78 µM
TGI (NCI-H23 lung): 3.31 µM
GI50 (SF-295 CNS): 1.7 µM
TGI (SF-295 CNS): 3.13 µM
GI50 (NCI-H460 lung): 1.43 µM
TGI (NCI-H460 lung): 2.86 µM
GI50 (OVCAR-3 ovarian): 1.49 µM
TGI (OVCAR-3 ovarian): 2.9 µM
GI50 (NCI-H522 lung): 1.75 µM
TGI (NCI-H522 lung): 3.39 µM
GI50 (K-562 leukemia): 0.711 µM
TGI (K-562 leukemia): 12.7 µM
GI50 (OVCAR-4 ovarian): 1.83 µM
TGI (OVCAR-4 ovarian): 3.58 µM
GI50 (MALME-3M melanoma): 1.71 µM
TGI (MALME-3M melanoma): 3.09 µM
GI50 (HOP-62 NSCLC): 1.83 µM
TGI (HOP-62 NSCLC): 3.55 µM
GI50 (SNB-19 CNS): 1.72 µM
TGI (SNB-19 CNS): 3.24 µM
GI50 (SF-268 CNS): 1.81 µM
TGI (SF-268 CNS): 3.49 µM
GI50 (OVCAR-5 ovarian): 1.69 µM
TGI (OVCAR-5 ovarian): 3.13 µM
GI50 (PC-3 prostate): 1.89 µM
TGI (PC-3 prostate): 4.07 µM
GI50 (HS 578T breast): 2 µM
TGI (HS 578T breast): 4.29 µM
GI50 (LOX IMVI melanoma): 1.33 µM
TGI (LOX IMVI melanoma): 2.64 µM
GI50 (CAKI-1 renal): 1.62 µM
TGI (CAKI-1 renal): 3.02 µM
GI50 (BT-549 breast): 2.47 µM
TGI (BT-549 breast): 5.59 µM
GI50 (U251 CNS): 1.75 µM
TGI (U251 CNS): 3.27 µM
GI50 (NCI/ADR-RES ovarian): 1.85 µM
TGI (NCI/ADR-RES ovarian): 3.51 µM
GI50 (DU-145 prostate): 1.85 µM
TGI (DU-145 prostate): 3.37 µM
GI50 (UACC-257 melanoma): 1.89 µM
TGI (UACC-257 melanoma): 4.02 µM
GI50 (HCT-15 colon): 1.64 µM
TGI (HCT-15 colon): 3.05 µM
GI50 (HCT-116 colon): 1.48 µM
TGI (HCT-116 colon): 3.26 µM
GI50 (SN12C renal): 1.75 µM
TGI (SN12C renal): 3.27 µM
GI50 (MOLT-4 leukemia): 2.5 µM
TGI (MOLT-4 leukemia): 6.02 µM
GI50 (TK-10 renal): 1.89 µM
TGI (TK-10 renal): 3.47 µM
GI50 (NCI-H226 lung): 1.94 µM
TGI (NCI-H226 lung): 3.77 µM
GI50 (SK-MEL-28 melanoma): 1.68 µM
TGI (SK-MEL-28 melanoma): 3.08 µM
GI50 (SK-MEL-2 melanoma): 2.04 µM
TGI (SK-MEL-2 melanoma): 4.3 µM
GI50 (MDA-MB-231 breast): 1.78 µM
TGI (MDA-MB-231 breast): 3.19 µM
GI50 (RPMI-8226 leukemia): 2.72 µM
TGI (RPMI-8226 leukemia): 8.81 µM
GI50 (SNB-75 CNS): 1.48 µM
TGI (SNB-75 CNS): 2.92 µM
GI50 (HT29 colon): 1.83 µM
TGI (HT29 colon): 3.51 µM
GI50 (786-0 renal): 1.7 µM
TGI (786-0 renal): 3.33 µM
GI50 (MDA-MB-435): 1.62 µM
TGI (MDA-MB-435): 3.1 µM
GI50 (UACC-62 melanoma): 1.77 µM
TGI (UACC-62 melanoma): 3.24 µM
GI50 (EKVX NSCLC): 1.83 µM
TGI (EKVX NSCLC): 3.32 µM
GI50 (SW-620 colon): 1.14 µM
TGI (SW-620 colon): 2.49 µM
GI50 (CCRF-CEM leukemia): 1.8 µM
TGI (CCRF-CEM leukemia): 4.68 µM
GI50 (MCF7 breast): 1.05 µM
TGI (MCF7 breast): 2.34 µM
GI50 (T-47D breast): 1.88 µM
TGI (T-47D breast): 3.82 µM
GI50 (SK-MEL-5 melanoma): 1.93 µM
TGI (SK-MEL-5 melanoma): 3.79 µM
